In patent publication US20260256789A1, “METHODS FOR TREATMENT OF CANCER” (Frontier Medicines Corporation, priority 2022, published 2026) one finds IC50 data, which are given here for 36 compounds.

The assay deals with T1, KRAS G12C (GMPPNP-loaded) and cRAF Ras-binding domain (Homo sapiens, UniProt P01116, C118S/C51S/C80L/G12C).
T1 construct: truncated version comprising amino acids 1-169
T1 sequence (P01116 1-169 isoform P01116-2 G12C/C51S/C80L/C118S): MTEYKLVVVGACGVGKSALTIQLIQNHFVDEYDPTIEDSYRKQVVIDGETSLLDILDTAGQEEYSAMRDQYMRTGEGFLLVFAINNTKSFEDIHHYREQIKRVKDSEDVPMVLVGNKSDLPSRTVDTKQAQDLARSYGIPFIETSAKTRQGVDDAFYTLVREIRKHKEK
In words: Inhibition of KRAS G12C and cRAF binding (AlphaScreen). The conditions noted are these: KRAS G12C preloaded with GTP analogue GMPPNP, 2 hours preincubation. The gist of the method: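 Compounds (10-point, 1:3 from 50 μM; 2% DMSO) were incubated 2 h at room temperature with 0.5 nM GMPPNP-preloaded truncated Cys-light KRAS G12C, then 60-90 min with 0.75 nM GST-RBD of cRAF and AlphaScreen beads. Signal at 570 nm gave IC50 by 4-parameter regression, and a biotin-AviTag-GST counter assay excluded interference with the AlphaScreen readout.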
Turning to `C=CC(=O)N1CC[C@@H](N(C)c2nc(OC[C@@]34CCCN3C[C@H](F)C4)nc3c(F)c(-c4cc(O)c(C)cc4C4CC4)ncc23)C1` [Example 228], the IC50 was ≥ 500 nM.

Regarding `C=CC(=O)N1CC[C@@H](N(C)c2nc(OC[C@@]34CCCN3C[C@H](F)C4)nc3c(F)c(-c4c(O)cccc4Cl)ncc23)C1` [Example 229], the IC50 is ≥ 500 nM.

On to `C=CC(=O)N1CC[C@@H](N(C)c2nc(OC[C@@]34CCCN3C[C@H](F)C4)nc3c(F)c(-c4cc(OC)cc5nccnc45)ncc23)C1` [Example 230], for which the IC50 was ≥ 500 nM. The value for `CN(c1nc(OC[C@@]23CCCN2C[C@H](F)C3)nc2c(F)c(-c3cccc(Cl)c3C3CC3)ncc12)[C@@H]1CCN(C(=O)/C=C/CN2C[C@@H]3C[C@H]2CO3)C1` [Example 231] was 10 to 100 nM; that for `C=CC(=O)N1CC[C@@H](N(C)c2nc(OC[C@@]34CCCN3C[C@H](F)C4)nc3c(F)c(-c4c(C)cc(F)c5[nH]ncc45)ncc23)C1` [Example 232] was ≥ 500 nM.

Consider `C=CC(=O)N1CC[C@@H](N(C)c2nc(OC[C@@]34CCCN3C[C@H](F)C4)nc3c(F)c(-c4ccc(O)cc4C4CC4)ncc23)C1` [Example 233], for which the IC50 was ≥ 500 nM. The value for `C=CC(=O)N1CC[C@@H](N(C)c2nc(OC[C@@]34CCCN3C[C@H](F)C4)nc3c(F)c(-c4cccn5nccc45)ncc23)C1` [Example 234] was ≥ 500 nM; that for `CN(c1nc(OC[C@@]23CCCN2C[C@H](F)C3)nc2c(F)c(-c3cccc(Cl)c3C3CC3)ncc12)[C@@H]1CCN(C(=O)C#C[C@@]2(C)CCCN2C)C1` [Example 235] was 10 to 100 nM. The value for `C=CC(=O)N1CC[C@@H](N(C)c2nc(OC[C@@]34CCCN3C[C@H](F)C4)nc3c(F)c(-c4cccc(Cl)c4C4CC4)ncc23)[C@H]1C` [Example 236] was 100 to 500 nM; that for `C=CC(=O)N1CC[C@H](O)[C@@H](N(C)c2nc(OC[C@@]34CCCN3C[C@H](F)C4)nc3c(F)c(-c4cccc(Cl)c4C4CC4)ncc23)C1` [Example 237] was ≥ 500 nM. As for `CN(c1nc(OC[C@@]23CCCN2C[C@H](F)C3)nc2c(F)c(-c3cccc(Cl)c3C3CC3)ncc12)[C@@H]1CCN(C(=O)/C=C/CN2CC[C@H](F)C2)C1` [Example 238], the IC50 lay in the range of 10 to 100 nM. With `Cc1cc(N)nc(-c2ncc3c(N(C)[C@@H]4CCN(C#N)C4)nc(OC[C@@]45CCCN4C[C@H](F)C5)nc3c2F)c1C(F)(F)F` [Example 239], the IC50 is < 10 nM. The value for `C=CC(=O)N1CC[C@@H](N(C)c2nc(OC[C@@]34CCCN3C[C@H](F)C4)nc3c(F)c(-c4cncc(Cl)c4C4CC4)ncc23)C1` [Example 240] was ≥ 500 nM; that for `CN(c1nc(OC[C@@]23CCCN2C[C@H](F)C3)nc2c(F)c(-c3cccc(Cl)c3C3CC3)ncc12)[C@@H]1CCN(C(=O)/C=C/CN2[C@@H]3CC[C@H]2COC3)C1` [Example 241] was 10 to 100 nM; that for `CN1CC[C@@H]1/C=C/C(=O)N1CC[C@@H](N(C)c2nc(OC[C@@]34CCCN3C[C@H](F)C4)nc3c(F)c(-c4cccc(Cl)c4C(F)(F)F)ncc23)C1` [Example 242] was 10 to 100 nM. In the case of `C=CC(=O)N1C[C@H](F)[C@@H](N(C)c2nc(OC[C@@]34CCCN3C[C@H](F)C4)nc3c(F)c(-c4cc(O)cc(Cl)c4C4CC4)ncc23)C1` [Example 243], the IC50 is < 10 nM.

`C=CC(=O)N1CC[C@@H](N(C)c2nc(OC[C@@]34CCCN3C[C@H](F)C4)nc3c(F)c(-c4cccc5sc(N)nc45)ncc23)C1` [Example 244] returned an IC50 of 10 to 100 nM. The compound `CN(c1nc(OC[C@@]23CCCN2C[C@H](F)C3)nc2c(F)c(-c3cccc(Cl)c3C3CC3)ncc12)[C@@H]1CCN(C(=O)/C=C/CN2C[C@H]3C[C@@H]2CO3)C1` [Example 245] had a half-maximal inhibitory concentration (IC50) of 10 to 100 nM.

`C=CC(=O)N1CC[C@@H](N(C)c2nc(OC[C@@]34CCCN3C[C@H](F)C4)nc3c(F)c(-c4ncn5ccccc45)ncc23)C1` [Example 246]: the concentration for half-maximal inhibition (IC50) is ≥ 500 nM. The compound `Cc1cc(/C=C/C(=O)N2CC[C@@H](N(C)c3nc(OC[C@@]45CCCN4C[C@H](F)C5)nc4c(F)c(-c5cccc(Cl)c5C5CC5)ncc34)C2)nc(C)n1` [Example 247] registered an IC50 of 100 to 500 nM. To `C=CC(=O)N1CC[C@@H](N(C)c2nc(OC[C@@]34CCCN3C[C@H](F)C4)nc3c(F)c(-c4cc(O)cc(Cl)c4C(F)(F)F)ncc23)C1` [Example 248] belongs < 10 nM. Take `C=CC(=O)N1CC[C@@H](N(C)c2nc(OC[C@@]34CCCN3C[C@H](F)C4)nc3c(F)c(-c4cc(F)cc(F)c4C4CC4)ncc23)C1` [Example 249]: the IC50 was ≥ 500 nM.

Consider `C=CC(=O)N1CC[C@@H](N(C)c2nc(OC[C@@]34CCCN3C[C@H](F)C4)nc3c(F)c(-c4cc(C(F)F)ccc4Cl)ncc23)C1` [Example 251], for which the IC50 was ≥ 500 nM. To `C=CC(=O)N1CC[C@@H](N(C)c2nc(OC[C@@]34CCCN3C[C@H](F)C4)nc3c(F)c(-c4cccc(Cl)c4C4CC4)ncc23)C1` [Example 252] belongs 10 to 100 nM; to `C=CC(=O)N1CC[C@@H](N(C)c2nc(OC[C@@]34CCCN3C[C@H](F)C4)nc3c(F)c(-c4cc(O)cnc4C4CC4)ncc23)C1` [Example 253], ≥ 500 nM; to `Cc1nccc(/C=C/C(=O)N2CC[C@@H](N(C)c3nc(OC[C@@]45CCCN4C[C@H](F)C5)nc4c(F)c(-c5cc(O)cc(Cl)c5C5CC5)ncc34)C2)n1` [Example 254], < 10 nM. To `C=CC(=O)N1CC[C@@H](N(C)c2nc(OC[C@@]34CCCN3C[C@H](F)C4)nc3c(F)c(-c4cccc(Cl)c4C(F)(F)F)ncc23)C1` [Example 255] belongs 100 to 500 nM; to `CN(c1nc(OC[C@@]23CCCN2C[C@H](F)C3)nc2c(F)c(-c3cccc(Cl)c3C3CC3)ncc12)[C@@H]1CCN(C(=O)/C=C/CN2C3COCC2C3)C1` [Example 256], 10 to 100 nM; to `CN(c1nc(OC[C@@]23CCCN2C[C@H](F)C3)nc2c(F)c(-c3cccc(Cl)c3C3CC3)ncc12)[C@@H]1CCN(C(=O)C#CCN2CC3CCC(C2)O3)C1` [Example 257], 10 to 100 nM. The value for `Cc1ncc(F)c(/C=C/C(=O)N2CC[C@@H](N(C)c3nc(OC[C@@]45CCCN4C[C@H](F)C5)nc4c(F)c(-c5cccc(Cl)c5C5CC5)ncc34)C2)n1` [Example 258] was 100 to 500 nM; that for `C=CC(=O)N1CC[C@@H](N(C)c2nc(OC[C@@]34CCCN3C[C@H](F)C4)nc3c(F)c(-c4cc(F)cnc4C4CC4)ncc23)C1` [Example 259] was ≥ 500 nM. For the compound `C=CC(=O)N1CC[C@@H](N(C)c2nc(OC[C@@]34CCCN3C[C@H](F)C4)nc3c(F)c(-c4cncnc4C4CC4)ncc23)C1` [Example 260], the half-maximal inhibitory concentration (IC50) was ≥ 500 nM.

In the case of `C=CC(=O)N1CC[C@@H](N(C)c2nc(OC[C@@]34CCCN3C[C@H](F)C4)nc3c(F)c(-c4nc(N)ccc4OC(F)F)ncc23)C1` [Example 261], the half-inhibitory concentration (IC50) is ≥ 500 nM. To `CN(c1nc(OC[C@@]23CCCN2C[C@H](F)C3)nc2c(F)c(-c3cccc(Cl)c3C3CC3)ncc12)[C@@H]1CCN(C(=O)/C=C/CN2CC[C@@H](F)C2)C1` [Example 262] belongs 10 to 100 nM; to `C=CC(=O)N1CC[C@@H](N(C)c2nc(OC[C@@]34CCCN3C[C@H](F)C4)nc3c(F)c(-c4cc(C(F)F)cc(Cl)c4C4CC4)ncc23)C1` [Example 263], ≥ 500 nM. For `C=CC(=O)N1CC[C@@H](N(C)c2nc(OC[C@@]34CCCN3C[C@H](F)C4)nc3c(F)c(-c4cccc5cn[nH]c45)ncc23)C1` [Example 264], the IC50 is ≥ 500 nM.

By IC50 is commonly meant the midpoint of a concentration-inhibition curve.
